The assay deals with KRAS G12V dependent lung adenocarcinoma cell line, NCI-H441. Kind of assay: Cellular pERK (Thr202/Tyr204) FRET/HTRF assay. As to conditions: Homo sapiens, NCI-H441, cellular pERK (Thr202/Tyr204) HTRF, NCI-H441 cells. The assay is classed as cell-based. The method in brief: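 IC50 reflects inhibition of ERK1/2 Thr202/Tyr204 phosphorylation, quantified by HTRF after a 1 hr treatment of KRAS G12V-driven NCI-H441 cells. DMSO served as negative control.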
Background: In TR-FRET formats the signal depends on donor and acceptor labels being close together.
`[2H]C([2H])(Oc1nc(N2CCCC[C@H]3[C@H](F)[C@H]32)c2cnc(-c3cccc4c(F)c(F)c(F)c(C#C)c34)c(F)c2n1)[C@@]12CCCN1C[C@H](F)C2` [Example 111, 7-(8-ethynyl-5,6,7-trifluoronaphthalen-1-yl)-8-fluoro-4-((1S,7R,8S)-8-fluoro-2-azabicyclo[5.1.0]octan-2-yl)-2-(((2R,7aS)-2-fluorotetrahydro-1H-pyrrolizin-7a(5H)-yl)methoxy-d2)pyrido[4,3-d]pyrimidine] gave an IC50 of 500 to 10000 nM.

On to `[2H]C([2H])(Oc1nc(N2CCCC[C@H]3[C@H](F)[C@H]32)c2cnc(-c3cccc4c(F)cc(F)c(C#C)c34)c(F)c2n1)[C@@]12CCCN1C[C@H](F)C2` [Example 112, 7-(8-ethynyl-5,7-difluoronaphthalen-1-yl)-8-fluoro-4-((1S,7R,8S)-8-fluoro-2-azabicyclo[5.1.0]octan-2-yl)-2-(((2R,7aS)-2-fluorotetrahydro-1H-pyrrolizin-7a(5H)-yl)methoxy-d2)pyrido[4,3-d]pyrimidine], for which the IC50 fell in the range of 50 to 500 nM.

Turning to `[2H]C([2H])(Oc1nc(N2CCOC[C@H]3[C@H](F)[C@H]32)c2cnc(-c3cncc4ccc(F)c(Cl)c34)c(F)c2n1)[C@@]12CCCN1C[C@H](F)C2` [Example 113, (1S,7S,8S)-2-(7-(5-chloro-6-fluoroisoquinolin-4-yl)-8-fluoro-2-(((2R,7aS)-2-fluorotetrahydro-1H-pyrrolizin-7a(5H)-yl)methoxy-d2)pyrido[4,3-d]pyrimidin-4-yl)-8-fluoro-5-oxa-2-azabicyclo[5.1.0]octane], the IC50 was in the range of 500 to 10000 nM.

As for `[2H]C([2H])(Oc1nc(N2CCOC[C@H]3[C@H](F)[C@H]32)c2cnc(-c3cncc4ccc(F)c(C#C)c34)c(F)c2n1)[C@@]12CCCN1C[C@H](F)C2` [Example 114, (1S,7S,8S)-2-(7-(5-Ethynyl-6-fluoroisoquinolin-4-yl)-8-fluoro-2-(((2R,7aS)-2-fluorotetrahydro-1H-pyrrolizin-7a(5H)-yl)methoxy-d2)pyrido[4,3-d]pyrimidin-4-yl)-8-fluoro-5-oxa-2-azabicyclo[5.1.0]octane], the IC50 is less than 50 nM.

`[2H]C([2H])(Oc1nc(N2CCCO[C@H]3[C@H](F)[C@H]32)c2cnc(-c3cc(N)cc4c(F)c(F)c(F)c(C#C)c34)c(F)c2n1)[C@@]12CCCN1C[C@H](F)C2` [Example 115, 5-ethynyl-6,7,8-trifluoro-4-(8-fluoro-4-((1R,7S,8R)-8-fluoro-2-oxa-6-azabicyclo[5.1.0]octan-6-yl)-2-(((2R,7aS)-2-fluorotetrahydro-1H-pyrrolizin-7a(5H)-yl)methoxy-d2)pyrido[4,3-d]pyrimidin-7-yl)naphthalen-2-amine]: the IC50 is less than 50 nM.

The compound `[2H]C([2H])(F)Oc1c(F)ccc2cc(N)cc(-c3ncc4c(N5CCOC[C@H]6[C@H](F)[C@H]65)nc(OC([2H])([2H])[C@@]56CCCN5C[C@H](F)C6)nc4c3F)c12` [Example 116, 6-Fluoro-4-(8-fluoro-4-((1S,7S,8S)-8-fluoro-5-oxa-2-azabicyclo[5.1.0]octan-2-yl)-2-(((2R,7aS)-2-fluorotetrahydro-1H-pyrrolizin-7a(5H)-yl)methoxy-d2)pyrido[4,3-d]pyrimidin-7-yl)-5-(fluoromethoxy-d2)naphthalen-2-amine] showed an IC50 of less than 50 nM.

Compound `[2H]C([2H])(Oc1nc(N2CCCO[C@H]3[C@H](F)[C@H]32)c2cnc(-c3cc(N)cc4c(F)cc(F)c(C#C)c34)c(F)c2n1)[C@@]12CCCN1C[C@H](F)C2` [Example 117, 5-ethynyl-6,8-difluoro-4-(8-fluoro-4-((1R,7S,8R)-8-fluoro-2-oxa-6-azabicyclo[5.1.0]octan-6-yl)-2-(((2R,7aS)-2-fluorotetrahydro-1H-pyrrolizin-7a(5H)-yl)methoxy-d2)pyrido[4,3-d]pyrimidin-7-yl)naphthalen-2-amine] displayed an IC50 of less than 50 nM.

Compound `[2H]C([2H])(Oc1nc(N2CCOC[C@@H]3[C@H]2[C@@]3([2H])F)c2cnc(-c3cccc4ccc(F)c(C#C)c34)c(F)c2n1)[C@@]12CCCN1C[C@H](F)C2` [Example 118, (1S,7S,8S)-2-(7-(8-ethynyl-7-fluoronaphthalen-1-yl)-8-fluoro-2-(((2R,7aS)-2-fluorotetrahydro-1H-pyrrolizin-7a(5H)-yl)methoxy-d2)pyrido[4,3-d]pyrimidin-4-yl)-8-fluoro-5-oxa-2-azabicyclo[5.1.0]octane-8-d] had an IC50 of less than 50 nM.

As for `[2H]C([2H])([2H])Oc1c(F)c(F)c(F)c2cc(N)cc(-c3ncc4c(N5CCOC[C@@H]6[C@H]5[C@@]6([2H])F)nc(OC([2H])([2H])[C@@]56CCCN5C[C@H](F)C6)nc4c3F)c12` [Example 119, 6,7,8-trifluoro-4-(8-fluoro-4-((1S,7S,8S)-8-fluoro-5-oxa-2-azabicyclo[5.1.0]octan-2-yl-8-d)-2-(((2R,7aS)-2-fluorotetrahydro-1H-pyrrolizin-7a(5H)-yl)methoxy-d2)pyrido[4,3-d]pyrimidin-7-yl)-5-(methoxy-d3)naphthalen-2-amine], the IC50 is less than 50 nM.

With `[2H]C([2H])([2H])Oc1c(F)c(F)c(F)c2cc(N)cc(-c3ncc4c(N5CCOC[C@H]6[C@H](F)[C@H]65)nc(OC[C@]56CC(=C)CN5CCC65CC5)nc4c3F)c12` [Example 120, 6,7,8-trifluoro-4-(8-fluoro-4-((1S,7S,8S)-8-fluoro-5-oxa-2-azabicyclo[5.1.0]octan-2-yl)-2-(((R)-6′-methylenetetrahydrospiro[cyclopropane-1,1′-pyrrolizin]-7a′(5′H)-yl)methoxy)pyrido[4,3-d]pyrimidin-7-yl)-5-(methoxy-d3)naphthalen-2-amine], the IC50 was less than 50 nM.

The compound `[2H]C([2H])([2H])Oc1c(F)c(F)c(F)c2cc(N)cc(-c3ncc4c(N5CCOC[C@H]6[C@H](F)[C@H]65)nc(OC[C@@]56CC(=C)CN5CCC65CC5)nc4c3F)c12` [Example 121, 6,7,8-trifluoro-4-(8-fluoro-4-((1S,7S,8S)-8-fluoro-5-oxa-2-azabicyclo[5.1.0]octan-2-yl)-2-(((S)-6′-methylenetetrahydrospiro[cyclopropane-1,1′-pyrrolizin]-7a′(5′H)-yl)methoxy)pyrido[4,3-d]pyrimidin-7-yl)-5-(methoxy-d3)naphthalen-2-amine] came in with an IC50 of less than 50 nM.

Regarding `[2H]C([2H])(Oc1nc(N2CCOC[C@@H]3[C@H]2[C@@]3([2H])F)c2cnc(-c3cccc4cc(F)c(F)c(C#C)c34)c(F)c2n1)[C@@]12CCCN1C[C@H](F)C2` [Example 122, (1S,7S,8S)-2-(7-(8-ethynyl-6,7-difluoronaphthalen-1-yl)-8-fluoro-2-(((2R,7aS)-2-fluorotetrahydro-1H-pyrrolizin-7a(5H)-yl)methoxy-d2)pyrido[4,3-d]pyrimidin-4-yl)-8-fluoro-5-oxa-2-azabicyclo[5.1.0]octane-8-d], the IC50 was less than 50 nM.

On to `[2H]C([2H])([2H])Oc1c(F)c(F)c(F)c2cccc(-c3ncc4c(N5CCOC[C@H]6[C@H](F)[C@H]65)nc(OC([2H])([2H])[C@@]56CCCN5C[C@H](F)C6)nc4c3F)c12` [Example 123, (1S,7S,8S)-8-fluoro-2-(8-fluoro-2-(((2R,7aS)-2-fluorotetrahydro-1H-pyrrolizin-7a(5H)-yl)methoxy-d2)-7-(5,6,7-trifluoro-8-(methoxy-d3)naphthalen-1-yl)pyrido[4,3-d]pyrimidin-4-yl)-5-oxa-2-azabicyclo[5.1.0]octane], for which the IC50 lay in the range of 50 to 500 nM.

The compound `[2H]C([2H])([2H])Oc1c(F)c(F)c(F)c2cc(N)cc(-c3ncc4c(N5CCOC([2H])([2H])[C@H]6[C@H](F)[C@H]65)nc(OC([2H])([2H])[C@@]56CCCN5C[C@H](F)C6)nc4c3F)c12` [Example 124, 6,7,8-trifluoro-4-(8-fluoro-4-((1S,7S,8S)-8-fluoro-5-oxa-2-azabicyclo[5.1.0]octan-2-yl-6,6-d2)-2-(((2R,7aS)-2-fluorotetrahydro-1H-pyrrolizin-7a(5H)-yl)methoxy-d2)pyrido[4,3-d]pyrimidin-7-yl)-5-(methoxy-d3)naphthalen-2-amine] registered an IC50 of less than 50 nM.

`[2H]C([2H])([2H])Oc1c(F)c(F)c(F)c2cc(N)cc(-c3ncc4c(N5CCOC[C@H]6[C@H](F)[C@H]65)nc(OC[C@@]56CCCN5CC(=C)C6)nc4c3F)c12` [Example 125, 6,7,8-trifluoro-4-(8-fluoro-4-((1S,7S,8S)-8-fluoro-5-oxa-2-azabicyclo[5.1.0]octan-2-yl)-2-(((S)-2-methylenetetrahydro-1H-pyrrolizin-7a(5H)-yl)methoxy)pyrido[4,3-d]pyrimidin-7-yl)-5-(methoxy-d3)naphthalen-2-amine] showed an IC50 of less than 50 nM.

Compound `[2H]C([2H])(Oc1nc(N2CCOC[C@H]3[C@H](F)[C@H]32)c2cnc(-c3cncc4ccc(F)c(OCF)c34)c(F)c2n1)[C@@]12CCCN1C[C@H](F)C2` [Example 126, (1S,7S,8S)-8-Fluoro-2-(8-fluoro-7-(6-fluoro-5-(fluoromethoxy)isoquinolin-4-yl)-2-(((2R,7aS)-2-fluorotetrahydro-1H-pyrrolizin-7a(5H)-yl)methoxy-d2)pyrido[4,3-d]pyrimidin-4-yl)-5-oxa-2-azabicyclo[5.1.0]octane] came in with an IC50 of less than 50 nM.

In turn, `[2H]C([2H])(F)Oc1c(F)ccc2cncc(-c3ncc4c(N5CCOC[C@H]6[C@H](F)[C@H]65)nc(OC([2H])([2H])[C@@]56CCCN5C[C@H](F)C6)nc4c3F)c12` [Example 127, (1S,7S,8S)-8-Fluoro-2-(8-fluoro-7-(6-fluoro-5-(fluoromethoxy-d2)isoquinolin-4-yl)-2-(((2R,7aS)-2-fluorotetrahydro-1H-pyrrolizin-7a(5H)-yl)methoxy-d2)pyrido[4,3-d]pyrimidin-4-yl)-5-oxa-2-azabicyclo[5.1.0]octane] had an IC50 of 500 to 10000 nM.

By IC50 is commonly meant the concentration at which inhibition is half-maximal. Low values mean inhibition by little substance, high ones a need for much substance.

The record behind these values is patent US20250282799A1, “SUBSTITUTED PYRIDO[4,3-d]PYRIMIDINES AS KRAS MODULATORS” (Alterome Therapeutics, Inc., priority 2023, published 2025).
